Measurements from the NIST ThermoML archive (doi:10.1021/je0340755).

Experiment: xn = mol fraction of the nth substance listed
Details: 101.3 kPa, Liquid; for viscosity: Capillary tube (Ostwald / Ubbelohde) method

CC(O)CCO (stereo not given) [1,3-butanediol] + O
Details | mass density, 298.15 K [kg/m3] | mass density, 308.15 K [kg/m3] | mass density, 318.15 K [kg/m3] | speed of sound, 298.15 K [m/s] | speed of sound, 308.15 K [m/s] | speed of sound, 318.15 K [m/s] | viscosity, 298.15 K [mPa·s] | viscosity, 308.15 K [mPa·s] | viscosity, 318.15 K [mPa·s]
x2 = 0.045 | 1001 | 995.14 | 989.57 | 1544.1 | 1500.6 | 1474.8 | 92.65 | 49.94 | 28.95
x2 = 0.1445 | 1003.36 | 997.4 | 991.66 | 1569.1 | 1520.3 | 1492.5 | 81.12 | 43.43 | 25.16
x2 = 0.2499 | 1006.05 | 999.97 | 994.06 | 1594.2 | 1538.6 | 1509.5 | 67.64 | 36.09 | 20.85
x2 = 0.3526 | 1008.62 | 1002.45 | 996.38 | 1613.2 | 1561.8 | 1531.8 | 54.19 | 29.07 | 16.64
x2 = 0.4519 | 1011.07 | 1004.84 | 998.64 | 1631.1 | 1585.2 | 1554.7 | 41.72 | 22.69 | 12.79
x2 = 0.5035 | 1012.39 | 1006.14 | 999.86 | 1643.5 | 1597 | – | 35.66 | 19.58 | 10.94
x2 = 0.5563 | 1013.79 | 1007.52 | – | 1652.1 | 1609.3 | – | 29.86 | 16.57 | 9.164
x2 = 0.6507 | 1016.24 | 1009.99 | – | 1682 | 1634.5 | – | 20.66 | 11.66 | 6.346
x2 = 0.7518 | 1017.77 | 1011.69 | – | 1702 | 1666.3 | – | 12.64 | 7.207 | 3.879
x2 = 0.8477 | 1015.59 | 1010.07 | – | 1681.6 | 1684 | – | 6.82 | 3.905 | 2.11
x2 = 0.9081 | 1010.74 | 1005.92 | – | 1673.4 | 1665.1 | – | 4.008 | 2.337 | 1.304
x2 = 0.9152 | 1009.95 | 1005.23 | – | 1660.2 | 1659.9 | – | 3.719 | 2.179 | 1.226
x2 = 0.9253 | 1008.73 | 1004.18 | – | 1645 | 1657.3 | – | 3.322 | 1.965 | 1.122
x2 = 0.9355 | 1007.4 | 1003.02 | – | 1615.2 | 1640.7 | – | 2.937 | 1.759 | 1.024
x2 = 0.9521 | 1005.03 | 1000.96 | – | 1610.8 | 1619.1 | – | 2.348 | 1.45 | 0.881
x2 = 0.9543 | 1004.7 | 1000.67 | – | 1599.6 | 1615.8 | – | 2.273 | 1.411 | 0.864
x2 = 0.9597 | 1003.86 | 999.94 | – | 1576.9 | 1607.2 | – | 2.093 | 1.318 | 0.824
x2 = 0.9699 | 1002.22 | 998.52 | – | 1551.3 | 1589 | – | 1.765 | 1.15 | 0.753
x2 = 0.9804 | 1000.46 | 996.99 | – | 1525.7 | 1567.4 | – | 1.444 | 0.99 | 0.69
x2 = 0.9901 | 998.79 | 995.53 | – | 1519.4 | 1544.6 | – | 1.163 | 0.851 | 0.639
x2 = 0.9924 | 998.38 | 995.19 | – | 1510.8 | 1536.8 | – | 1.098 | 0.819 | 0.628
x2 = 0.9955 | 997.84 | 994.71 | – | 1527.6 | 1530.7 | – | 1.012 | 0.778 | 0.615
